These compounds were tested against T1, recombinant human ACC2 (Homo sapiens, UniProt O00763) (assay: Measurement of inhibitory activity on human ACC2 (MALDI-TOF MS, acetyl CoA to malonyl CoA conversion)). Conditions: not given.
T1 construct: a cDNA encoding human ACC2 (27-2458) was cloned from human kidney cDNA library (Clontech); His-tag (N); made in house; host or cells: Sf-9 insect cells (Bac-to-Bac baculovirus)
T1 sequence (O00763 27-2458): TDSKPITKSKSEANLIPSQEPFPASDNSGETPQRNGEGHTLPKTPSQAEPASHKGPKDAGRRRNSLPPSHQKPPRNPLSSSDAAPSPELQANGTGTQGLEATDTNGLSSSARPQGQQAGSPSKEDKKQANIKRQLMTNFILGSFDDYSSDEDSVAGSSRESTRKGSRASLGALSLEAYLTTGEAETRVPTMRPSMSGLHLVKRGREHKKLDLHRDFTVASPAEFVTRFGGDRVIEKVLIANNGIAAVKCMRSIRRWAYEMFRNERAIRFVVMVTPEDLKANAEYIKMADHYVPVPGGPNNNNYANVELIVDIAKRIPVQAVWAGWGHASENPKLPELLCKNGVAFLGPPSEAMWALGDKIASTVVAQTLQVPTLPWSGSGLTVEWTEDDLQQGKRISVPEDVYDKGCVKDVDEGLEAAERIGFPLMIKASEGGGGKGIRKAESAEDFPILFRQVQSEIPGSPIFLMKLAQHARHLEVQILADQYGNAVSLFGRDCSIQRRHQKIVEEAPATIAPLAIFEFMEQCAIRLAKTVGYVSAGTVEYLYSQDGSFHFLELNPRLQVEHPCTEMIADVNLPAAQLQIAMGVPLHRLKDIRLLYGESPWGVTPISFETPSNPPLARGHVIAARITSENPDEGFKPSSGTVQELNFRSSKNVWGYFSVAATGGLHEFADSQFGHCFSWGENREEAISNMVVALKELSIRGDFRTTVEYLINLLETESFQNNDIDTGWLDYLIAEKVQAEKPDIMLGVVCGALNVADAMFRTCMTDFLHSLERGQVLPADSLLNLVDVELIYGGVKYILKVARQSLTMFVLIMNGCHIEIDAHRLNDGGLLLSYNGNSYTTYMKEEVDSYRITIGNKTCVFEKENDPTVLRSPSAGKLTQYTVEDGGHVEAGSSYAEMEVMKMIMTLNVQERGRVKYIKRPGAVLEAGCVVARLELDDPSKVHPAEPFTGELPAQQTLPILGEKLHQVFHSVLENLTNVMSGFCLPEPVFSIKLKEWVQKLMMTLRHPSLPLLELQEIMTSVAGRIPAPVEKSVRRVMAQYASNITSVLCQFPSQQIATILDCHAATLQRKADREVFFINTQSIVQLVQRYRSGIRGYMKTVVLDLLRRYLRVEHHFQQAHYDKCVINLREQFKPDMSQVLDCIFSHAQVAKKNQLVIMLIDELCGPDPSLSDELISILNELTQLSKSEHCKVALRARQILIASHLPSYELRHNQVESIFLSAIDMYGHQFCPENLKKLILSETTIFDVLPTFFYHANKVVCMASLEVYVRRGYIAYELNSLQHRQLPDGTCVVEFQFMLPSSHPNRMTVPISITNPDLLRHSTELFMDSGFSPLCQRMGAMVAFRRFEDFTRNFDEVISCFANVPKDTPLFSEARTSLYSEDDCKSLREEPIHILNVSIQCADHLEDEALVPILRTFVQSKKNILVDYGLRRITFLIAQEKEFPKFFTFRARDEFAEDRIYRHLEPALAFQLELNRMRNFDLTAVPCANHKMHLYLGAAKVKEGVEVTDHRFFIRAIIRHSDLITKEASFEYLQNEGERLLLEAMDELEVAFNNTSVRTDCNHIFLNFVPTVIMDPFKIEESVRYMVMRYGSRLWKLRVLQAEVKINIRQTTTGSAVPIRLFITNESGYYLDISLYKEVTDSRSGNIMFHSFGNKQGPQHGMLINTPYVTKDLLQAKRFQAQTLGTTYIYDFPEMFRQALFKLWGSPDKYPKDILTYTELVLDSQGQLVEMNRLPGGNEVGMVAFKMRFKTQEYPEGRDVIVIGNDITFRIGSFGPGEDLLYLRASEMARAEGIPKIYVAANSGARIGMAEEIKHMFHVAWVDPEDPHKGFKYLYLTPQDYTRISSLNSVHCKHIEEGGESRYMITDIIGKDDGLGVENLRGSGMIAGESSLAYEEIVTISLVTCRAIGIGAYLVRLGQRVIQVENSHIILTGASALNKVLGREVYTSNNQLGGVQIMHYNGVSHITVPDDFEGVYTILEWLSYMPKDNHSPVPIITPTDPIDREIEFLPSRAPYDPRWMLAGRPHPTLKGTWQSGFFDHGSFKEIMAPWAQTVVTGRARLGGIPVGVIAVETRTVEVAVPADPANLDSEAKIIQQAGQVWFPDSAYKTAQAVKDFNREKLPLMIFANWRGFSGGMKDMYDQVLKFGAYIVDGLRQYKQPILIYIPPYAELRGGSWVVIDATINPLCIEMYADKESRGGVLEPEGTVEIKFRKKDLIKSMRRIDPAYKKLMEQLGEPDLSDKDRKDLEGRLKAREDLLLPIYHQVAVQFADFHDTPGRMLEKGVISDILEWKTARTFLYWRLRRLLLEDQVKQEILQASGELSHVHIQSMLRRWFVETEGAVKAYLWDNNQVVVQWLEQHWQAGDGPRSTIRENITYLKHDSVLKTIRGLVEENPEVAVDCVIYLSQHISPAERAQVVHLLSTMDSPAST
Assay type: biochemical
`CC(=O)N[C@@H](C)/C=C/c1cnc(Oc2ccc(OCC3CC3O)cc2Cl)nc1` (some centres unmarked) [Compound I-379] was tested, and the IC50 was 3700 nM. Work on `CC(=O)N[C@@H](C)/C=C/c1ccc(Oc2ccc(CC3CC3)cc2Cl)nc1` [Compound I-380] yielded an IC50 of 22 nM. `CC(=O)N[C@@H](C)/C=C/c1cc(Oc2ccc(OCC3CC3)cc2Cl)no1` [Compound I-381] gave an IC50 of 360 nM. Work on `CC(=O)N[C@@H](C)/C=C/c1ccc(Oc2ccc(N3CCOCC3)cc2Cl)nc1` [Compound I-382] yielded an IC50 of 1300 nM. Work on `CC(=O)N[C@@H](C)/C=C/c1ccc(Oc2ccc(N3CCCCC3)cc2Cl)nc1` [Compound I-383] yielded an IC50 of 29 nM. For `CCCc1ccc(Oc2ccc(/C=C/[C@H](C)NC(=O)CO)cn2)c(Cl)c1` [Compound I-384], the IC50 was 280 nM. Compound `CCCc1cc(Cl)c(Oc2ccc(/C=C/[C@H](C)NC(C)=O)cn2)c(Cl)c1` [Compound I-385] has an IC50 of 160 nM. Compound `CCCc1ccc(Oc2ccc(/C=C/[C@H](C)NC(=O)CNC(=O)OC(C)(C)C)cn2)c(Cl)c1` [Compound I-386] has an IC50 of 400 nM. `CCCc1cc(Cl)c(Oc2ccc(/C=C/[C@H](C)NC(N)=O)cn2)c(Cl)c1` [Compound I-387] gave an IC50 of 560 nM. For `CCCn1cc(Oc2ccc(/C=C/[C@H](C)NC(C)=O)cn2)cn1` [Compound I-388], the IC50 was 2000 nM. With `CCC(F)(F)c1ccc(Oc2ccc(/C=C/[C@H](C)NC(C)=O)cn2)c(Cl)c1` [Compound I-389] the IC50 was 24 nM. `CCCc1ccc(Oc2ccc(/C=C/[C@H](C)NC(=O)c3ccnc(C(=O)NCCO)c3)cn2)c(Cl)c1` [Compound I-391] was tested, and the IC50 was 47 nM. Work on `CCCc1ccc(Oc2ccc(/C=C/[C@H](C)NC(=O)CNC(C)=O)cn2)c(Cl)c1` [Compound I-392] yielded an IC50 of 970 nM. `CCC(F)(F)c1ccc(Oc2ccc(/C=C/[C@H](C)NC(N)=O)cn2)c(Cl)c1` [Compound I-393] gave an IC50 of 48 nM. `COc1c(OCC2CC2)ccc(Oc2cnc(/C=C/[C@H](C)NC(C)=O)cn2)c1Cl` [Compound I-394] gave an IC50 of 12 nM. For `CC(=O)N[C@@H](C)/C=C/c1cc(Oc2ccc(OCC3CC3)cc2Cl)nn1C` [Compound I-395], the IC50 was 4200 nM. For `CC(=O)N[C@@H](C)/C=C/c1ccc(Oc2ccc(C(F)(F)C(C)C)cc2Cl)nc1` [Compound I-396], the IC50 was 55 nM. `CC(=O)N[C@@H](C)/C=C/c1ccc(Oc2ccc3c(c2)CCC3)nc1` [Compound I-397] showed an IC50 of 15 nM. In the case of `CC(=O)N[C@@H](C)/C=C/c1ccc(Oc2ccc3c(c2)CCCC3)nc1` [Compound I-398], the IC50 is reported as 43 nM. Work on `CC(C)C(F)(F)c1ccc(Oc2ccc(/C=C/[C@H](C)NC(N)=O)cn2)c(Cl)c1` [Compound I-399] yielded an IC50 of 68 nM. With `CCC1(c2ccc(Oc3ccc(/C=C/[C@H](C)NC(C)=O)cn3)c(Cl)c2)COC1` [Compound I-400] the IC50 was 3200 nM. For `CC(=O)N[C@@H](C)/C=C/c1ccc(Oc2ccc(C3CCC3)cc2Cl)nc1` [Compound I-401], the IC50 was 56 nM. Compound `CC(=O)N[C@@H](C)/C=C/n1cc(Oc2ccc(OCC3CC3)cc2Cl)cn1` [Compound I-402] has an IC50 of 1100 nM. `CCCc1ccc(Oc2ccc(/C=C/[C@H](C)NC(C)=O)cn2)c(C#N)c1` [Compound I-403] showed an IC50 of 450 nM. `CCCc1ccc(Oc2ccc(/C=C/[C@H](C)NC(C)=O)cn2)cc1C#N` [Compound I-404] gave an IC50 of 190 nM. With `CCCc1ccc(Oc2ccc(/C=C/[C@H](C)NC(=O)CC(=O)OC(C)(C)C)cn2)c(Cl)c1` [Compound I-405] the IC50 was 1200 nM. In the case of `CC(=O)N[C@@H](C)/C=C/c1cnc(Oc2cc(O)c(OCC3CC3)cc2Cl)nc1` [Compound I-406], the IC50 is reported as 300 nM. With `COc1cc(Oc2ncc(/C=C/[C@H](C)NC(C)=O)cn2)c(Cl)cc1OCC1CC1` [Compound I-407] the IC50 was 2100 nM. With `CCCc1ccc(Oc2ccc(/C=C/[C@H](C)NC(C)=O)cn2)c(-c2ccccc2)c1` [Compound I-408] the IC50 was 2300 nM. Work on `CC(=O)N[C@@H](C)/C=C/c1ccc(Oc2ccc(C(C)(C)C(F)(F)F)cc2Cl)nc1` [Compound I-409] yielded an IC50 of 25 nM. `CCOc1ccc(Oc2ccc(/C=C/[C@H](C)CC(=O)NC)cn2)c(Cl)c1` [Compound I-410] showed an IC50 of 150 nM. `CCCc1ccc(Oc2ncc(/C=C/[C@H](C)NC(C)=O)s2)c(Cl)c1` [Compound I-411] was tested, and the IC50 was 77 nM. Work on `CC(=O)N[C@@H](C)/C=C/c1ccc(Oc2ccc(-c3cnccn3)cc2Cl)nc1` [Compound I-412] yielded an IC50 of 200 nM. Compound `CC(=O)N[C@@H](C)/C=C/c1ccc(Oc2ccc(-c3nc4ccccc4o3)cc2Cl)nc1` [Compound I-414] has an IC50 of 36 nM. With `CC(=O)N[C@@H](C)/C=C/c1ccc(Oc2ccc(-c3nc4ccccc4s3)cc2Cl)nc1` [Compound I-415] the IC50 was 120 nM. Work on `CC(=O)N[C@@H](C)/C=C/c1ccc(Oc2ccc(-c3nccs3)cc2Cl)nc1` [Compound I-416] yielded an IC50 of 170 nM. `CC(=O)N[C@@H](C)/C=C/c1ccc(Oc2ccc(-c3cnc(C(F)(F)F)cn3)cc2Cl)nc1` [Compound I-417] showed an IC50 of 57 nM. With `CC(=O)N[C@@H](C)/C=C/c1ccc(Oc2ccc(-c3ncccn3)cc2Cl)nc1` [Compound I-418] the IC50 was 97 nM. `CC(=O)N[C@@H](C)/C=C/c1ccc(Oc2ccc(-c3ncc(C(F)(F)F)cn3)cc2Cl)nc1` [Compound I-419] showed an IC50 of 48 nM. For `CC(=O)N[C@@H](C)/C=C/c1ccc(Oc2ccc(-c3ccc(C(F)(F)F)cn3)cc2Cl)nc1` [Compound I-421], the IC50 was 52 nM. Work on `CCCc1ccc(Oc2ccc(/C=C/[C@H](C)NC(=O)Cc3ccccn3)cn2)c(Cl)c1` [Compound I-422] yielded an IC50 of 1300 nM. `CCCc1ccc(Oc2ccc(/C=C/[C@H](C)NC(=O)Cc3nccs3)cn2)c(Cl)c1` [Compound I-423] showed an IC50 of 3000 nM. Work on `CC(=O)N[C@@H](C)/C=C/c1ccc(Oc2ccc3sc(C)nc3c2)nc1` [Compound I-424] yielded an IC50 of 140 nM. `CC(=O)N[C@@H](C)/C=C/c1ccc(Oc2ccc3nc(C)sc3c2)nc1` [Compound I-425] was tested, and the IC50 was 40 nM. `CC(=O)N[C@@H](C)/C=C/c1ccc(Oc2cc3c(cc2Cl)CCC3)nc1` [Compound I-426] gave an IC50 of 26 nM.

Same assay, conditions: inhibition activity on human ACC2, Table 82; read-out: IC50
In the case of `CC(=O)N[C@@H](C)/C=C/c1ccc(Oc2ccc(-c3ccccc3C#N)cc2Cl)nc1` [Compound I-347], the IC50 is reported as 300 nM. Work on `COc1ccc(-c2ccc(Oc3ccc(/C=C/[C@H](C)NC(C)=O)cn3)c(Cl)c2)cn1` [Compound I-348] yielded an IC50 of 210 nM. Work on `CC(=O)N[C@@H](C)/C=C/c1ccc(Oc2ccc(-c3cnoc3)cc2Cl)nc1` [Compound I-349] yielded an IC50 of 6600 nM. In the case of `CC(=O)N[C@@H](C)/C=C/c1ccc(Oc2ccc(C3=CCCCC3)cc2Cl)nc1` [Compound I-350], the IC50 is reported as 18 nM. Compound `CC(=O)N[C@@H](C)/C=C/c1ccc(Oc2ccc(C3=CCCC3)cc2Cl)nc1` [Compound I-351] has an IC50 of 42 nM. In the case of `CC(=O)N[C@@H](C)/C=C/c1ccc(Oc2ccc(C3=CCOCC3)cc2Cl)nc1` [Compound I-352], the IC50 is reported as 240 nM. In the case of `CC(=O)N[C@@H](C)/C=C/c1ccc(Oc2ccc(C3=CCN(C)CC3)cc2Cl)nc1` [Compound I-353], the IC50 is reported as 2600 nM. `CC(=O)N[C@@H](C)/C=C/c1ccc(Oc2ccc(C3=CC(C)(C)OC(C)(C)C3)cc2Cl)nc1` [Compound I-354] was tested, and the IC50 was 170 nM. In the case of `CC(=O)N[C@@H](C)/C=C/c1ccc(Oc2ccc(C3=CCC4(CC3)CC4)cc2Cl)nc1` [Compound I-355], the IC50 is reported as 19 nM. In the case of `CCOc1ccc(NCc2ccc(/C=C/[C@H](C)NC(C)=O)cn2)cc1` [Compound I-356], the IC50 is reported as 5400 nM. Work on `CC(=O)N[C@@H](C)/C=C/c1ccc(Oc2ccc(C(=O)NCC3CC3)cc2Cl)nc1` [Compound I-357] yielded an IC50 of 440 nM. Compound `CC(=O)N[C@@H](C)/C=C/c1ccc(Oc2ccc(Cc3ccccc3)cc2Cl)nc1` [Compound I-358] has an IC50 of 27 nM. For `CCC(O)c1ccc(Oc2ccc(/C=C/[C@H](C)NC(C)=O)cn2)c(Cl)c1` (some centres unmarked) [Compound I-359], the IC50 was 230 nM. Compound `CCSc1ccc(Oc2ccc(/C=C/[C@H](C)NC(C)=O)cn2)c(Cl)c1` [Compound I-360] has an IC50 of 9.1 nM. `CCOc1cc(F)c(Oc2ccc(/C=C/[C@H](C)NC(C)=O)cn2)c(Cl)c1` [Compound I-361] gave an IC50 of 36 nM. In the case of `CCS(=O)(=O)c1ccc(Oc2ccc(/C=C/[C@H](C)NC(C)=O)cn2)c(Cl)c1` [Compound I-362], the IC50 is reported as 350 nM. `CC(=O)N[C@@H](C)/C=C/c1ccc(Oc2ccc(CC(C)C)cc2Cl)nc1` [Compound I-363] was tested, and the IC50 was 29 nM. `CC(=O)N[C@@H](C)/C=C/c1ccc(Oc2ccc(SCC(C)C)cc2Cl)nc1` [Compound I-364] was tested, and the IC50 was 13 nM. For `CCOc1ccc(Oc2ccc(/C=C(\F)C(C)NC(C)=O)cn2)c(Cl)c1` (centres unmarked) [Compound I-365], the IC50 was 10 nM. Compound `CC(=O)NC(C)/C(F)=C/c1ccc(Oc2ccc(OCC3CC3)cc2Cl)nc1` (centres unmarked) [Compound I-366] has an IC50 of 15 nM. With `CC(=O)N[C@@H](C)/C=C/c1ccc(Oc2ccc(S(=O)(=O)CC(C)C)cc2Cl)nc1` [Compound I-367] the IC50 was 140 nM. With `CCCc1ccc(Oc2ccc(/C=C/[C@H](C)NC(C)=O)cc2)nc1` [Compound I-368] the IC50 was 110 nM. Work on `CC(=O)N[C@@H](C)/C=C/c1ccc(Oc2ccc(C3(C)CC3)cc2Cl)nc1` [Compound I-369] yielded an IC50 of 24 nM. Work on `CCCc1ncc(Oc2ccc(/C=C/[C@H](C)NC(C)=O)cn2)cc1C` [Compound I-370] yielded an IC50 of 280 nM. `CC(=O)N[C@@H](C)/C=C/c1ccc(Oc2ccc(CC(C)(C)C)cc2Cl)nc1` [Compound I-371] was tested, and the IC50 was 60 nM. Work on `CCCc1cc(F)c(Oc2ccc(/C=C/[C@H](C)NC(C)=O)cn2)c(Cl)c1` [Compound I-372] yielded an IC50 of 33 nM. Compound `CCC(F)c1ccc(Oc2ccc(/C=C/[C@H](C)NC(C)=O)cn2)c(Cl)c1` (some centres unmarked) [Compound I-373] has an IC50 of 25 nM. `CCCc1ccc(Oc2ccc(/C=C/[C@H](C)NC(=O)C(=O)OCC)cn2)c(Cl)c1` [Compound I-374] was tested, and the IC50 was 780 nM. Work on `CCCc1ccc(Oc2ccc(/C=C/[C@H](C)NC(=O)COC(C)=O)cn2)c(Cl)c1` [Compound I-375] yielded an IC50 of 57 nM. `CC(=O)N[C@@H](C)/C=C/c1ccc(Oc2ccc(-c3ccc(C#N)nc3)cc2Cl)nc1` [Compound I-376] showed an IC50 of 1100 nM. Compound `CC(=O)N[C@@H](C)/C=C/c1ccc(Oc2ccc(-c3ccc(C#N)cc3)c(Cl)c2)nc1` [Compound I-377] has an IC50 of 39 nM. `CC(=O)N[C@@H](C)/C=C/c1ccc(Oc2ccc(C3=CCC4(CC3)CC4)c(Cl)c2)nc1` [Compound I-378] showed an IC50 of 16 nM.

Reference: patent publication US20150246938A1, “NOVEL OLEFIN DERIVATIVE” (SHIONOGI & CO., LTD., priority 2011, published 2015)
